Columns and labels:
Assay type in all cases: cell-based
MKN45 = experiment: Anti-proliferation assay (CellTiter-Glo 2.0), combination index, MKN45
Method: (§1) Cell lines were obtained from ATCC or Health Science Research Resources Bank.
(§2) Each cell lines were collected by ordinary method, then suspended in indicated medium containing 10% fetal bovine serum in table 3. The number of cells seeded per well was set to 500 cells/20 μL. […] The concentration of each anti-cancer reagents set to 8 concentrations including 0 nM. After adding the medicine to the cells, the cells were further incubated at 37° C. for 3 days under 5% CO2. Cell survival rates were calculated by adding 20 μL of CellTiter-Glo(registered trademark) 2. 0 (Promega) solution to each well, incubating the cells at room temperature for 10 minutes, and then measuring the chemiluminescence intensity of each well using a plate reader (ARVO).
(§3) A combination index (CI) value at each combined concentration of the medicines was determined.

RT4 = experiment: Anti-proliferation assay (CellTiter-Glo 2.0), combination index, RT4
Method: as §1, §2, §3

NCI-H358 = experiment: Anti-proliferation assay (CellTiter-Glo 2.0), combination index, NCI-H358; settings: for Description (combinatory effect by CI): Compound 1:combination drug molar ratio 1:9
Method: as §1, §2, §3

[1] = Compound 1 13.7 + combination drug 370 nmol/L (1:27)
[2] = Compound 1 41.2 + combination drug 1110 nmol/L (1:27)
[3] = Compound 1 123 + combination drug 3330 nmol/L (1:27)
[4] = Compound 1 370 + combination drug 10000 nmol/L (1:27)
[5] = Compound 1 1.52 + combination drug 123 nmol/L (1:81)
[6] = Compound 1 13.7 + combination drug 1110 nmol/L (1:81)
[7] = Compound 1 41.2 + combination drug 3330 nmol/L (1:81)
[8] = Compound 1 123 + combination drug 10000 nmol/L (1:81)
[9] = Compound 1 41.2 + combination drug 370 nmol/L (1:9)
[10] = Compound 1 123 + combination drug 1110 nmol/L (1:9)
[11] = Compound 1 370 + combination drug 3330 nmol/L (1:9)
[12] = Compound 1 1110 + combination drug 10000 nmol/L (1:9)
[13] = Compound 1 13.7 + combination drug 123 nmol/L (1:9)
[14] = Compound 1 123 nmol/L + Doxorubicin 123 nmol/L, molar ratio 1:1
[15] = Compound 1 370 nmol/L + Doxorubicin 370 nmol/L, molar ratio 1:1
[16] = Compound 1 1110 nmol/L + Doxorubicin 1110 nmol/L, molar ratio 1:1
[17] = Compound 1 41.2 nmol/L + Doxorubicin 13.7 nmol/L, molar ratio 1:0.3
[18] = Compound 1 123 nmol/L + Doxorubicin 41.2 nmol/L, molar ratio 1:0.3
[19] = Compound 1 370 nmol/L + Doxorubicin 123 nmol/L, molar ratio 1:0.3
[20] = Compound 1 3330 nmol/L + Doxorubicin 1110 nmol/L, molar ratio 1:0.3
[21] = Compound 1 10000 nmol/L + Doxorubicin 3330 nmol/L, molar ratio 1:0.3
[22] = Compound 1 3330 nmol/L + Doxorubicin 370 nmol/L, molar ratio 1:0.1
[23] = Compound 1 10000 nmol/L + Doxorubicin 1110 nmol/L, molar ratio 1:0.1
[24] = Compound 1 13.7 nmol/L + Oxalliplatin 370 nmol/L, molar ratio 1:27
[25] = Compound 1 41.2 nmol/L + Oxalliplatin 1110 nmol/L, molar ratio 1:27
[26] = Compound 1 123 nmol/L + Oxalliplatin 3330 nmol/L, molar ratio 1:27
[27] = Compound 1 370 nmol/L + Oxalliplatin 10000 nmol/L, molar ratio 1:27
[28] = Compound 1 4.57 nmol/L + Oxalliplatin 41.2 nmol/L, molar ratio 1:9

SMILES: Cc1nc(NC(=O)N2CCC[C@H]2C(N)=O)sc1-c1ccnc(C(C)(C)C(F)(F)F)c1 [Alpelisib]
- CI (MKN45; [1]): 0.700
- Fa (MKN45; [1]): 0.1253
- CI (MKN45; [2]): 0.426
- Fa (MKN45; [2]): 0.4108
- CI (MKN45; [3]): 0.655
- Fa (MKN45; [3]): 0.5920
- CI (MKN45; [4]): 0.772
- Fa (MKN45; [4]): 0.8141
- Description (combinatory effect by CI) (MKN45; Compound 1:combination drug molar ratio 1:27): Synergy (0.3-0.7)
- CI (RT4; [5]): 0.255
- Fa (RT4; [5]): 0.0658
- CI (RT4; [6]): 0.247
- Fa (RT4; [6]): 0.2690
- CI (RT4; [7]): 0.318
- Fa (RT4; [7]): 0.4427
- CI (RT4; [8]): 0.528
- Fa (RT4; [8]): 0.5855
- CI (NCI-H358; [9]): 0.451
- Fa (NCI-H358; [9]): 0.1532
- CI (NCI-H358; [10]): 0.356
- Fa (NCI-H358; [10]): 0.4353
- CI (NCI-H358; [11]): 0.589
- Fa (NCI-H358; [11]): 0.5959
- CI (NCI-H358; [12]): 0.844
- Fa (NCI-H358; [12]): 0.7671
- Description (combinatory effect by CI) (NCI-H358): Synergy (0.3-0.7)

SMILES: COc1cc2c(Oc3ccc4[nH]c(C)cc4c3F)ccnc2cc1OCC1(N)CC1 [Anlotinib]
- CI (MKN45; [3]): 0.755
- Fa (MKN45; [3]): 0.7514
- CI (RT4; [13]): 0.501
- Fa (RT4; [13]): 0.3362
- CI (RT4; [9]): 0.444
- Fa (RT4; [9]): 0.5003
- CI (RT4; [10]): 0.387
- Fa (RT4; [10]): 0.7040
- CI (RT4; [11]): 0.326
- Fa (RT4; [11]): 0.8765
- CI (RT4; [12]): 0.316
- Fa (RT4; [12]): 0.9539
- Description (combinatory effect by CI) (RT4; Compound 1:combination drug molar ratio 1:9): Synergy (0.3-0.7)
- CI (NCI-H358; [9]): 0.557
- Fa (NCI-H358; [9]): 0.3217
- CI (NCI-H358; [10]): 0.416
- Fa (NCI-H358; [10]): 0.5609
- CI (NCI-H358; [11]): 0.390
- Fa (NCI-H358; [11]): 0.7902
- CI (NCI-H358; [12]): 0.488
- Fa (NCI-H358; [12]): 0.9031
- Description (combinatory effect by CI) (NCI-H358): Synergy (0.3-0.7)

SMILES: COc1cccc2c1C(=O)c1c(O)c3c(c(O)c1C2=O)C[C@@](O)(C(=O)CO)C[C@@H]3O[C@H]1C[C@H](N)[C@H](O)[C@H](C)O1 [Doxorubicin]
- CI (MKN45; [14]): 0.596
- Fa (MKN45; [14]): 0.5818
- CI (MKN45; [15]): 0.267
- Fa (MKN45; [15]): 0.8738
- CI (MKN45; [16]): 0.361
- Fa (MKN45; [16]): 0.9317
- CI (RT4; [17]): 0.866
- Fa (RT4; [17]): 0.2952
- CI (RT4; [18]): 0.403
- Fa (RT4; [18]): 0.5056
- CI (RT4; [19]): 0.554
- Fa (RT4; [19]): 0.6537
- CI (RT4; [20]): 0.191
- Fa (RT4; [20]): 0.9964
- CI (RT4; [21]): 0.063
- Fa (RT4; [21]): 0.9999
- CI (NCI-H358; [22]): 0.845
- Fa (NCI-H358; [22]): 0.7275
- CI (NCI-H358; [23]): 0.249
- Fa (NCI-H358; [23]): 0.9706

SMILES: O=C1[O][Pt]2([NH][C@@H]3CCCC[C@H]3[NH]2)[O]C1=O [Oxalliplatin]
- CI (MKN45; [24]): 0.571
- Fa (MKN45; [24]): 0.4748
- CI (MKN45; [25]): 0.322
- Fa (MKN45; [25]): 0.6458
- CI (MKN45; [26]): 0.273
- Fa (MKN45; [26]): 0.7808
- CI (MKN45; [27]): 0.216
- Fa (MKN45; [27]): 0.9038
- CI (RT4; [28]): 0.932
- Fa (RT4; [28]): 0.2140
- CI (NCI-H358; [24]): 0.699
- Fa (NCI-H358; [24]): 0.1376
- CI (NCI-H358; [25]): 0.424
- Fa (NCI-H358; [25]): 0.3478
- CI (NCI-H358; [26]): 0.623
- Fa (NCI-H358; [26]): 0.4795
- Description (NCI-H358; combination effect, Compound 1 + Oxalliplatin, molar ratio 1:27): Synergy (0.3-0.7)

— patent publication US20230146795A1, “ENHANCEMENT OF ANTI-TUMOR ACTIVITY OF SHP2 INHIBITOR PYRIMIDINONE IN COMBINATION WITH NOVEL CANCER MEDICINES IN CANCERS” (TAIHO PHARMACEUTICAL CO., LTD., priority 2020, published 2023)
